Measurements taken from patent publication US10571448B2, “Method and system for comprehensive evaluation of organic compound and heavy metal pollution in water based on fish electrocardio” (priority 2018, dated 2020).

How the values were obtained:
[1] = system: koi; assay: 48 h semi-lethal concentration of heavy metal solutions for koi; details: recorded as 1 toxic unit (1 TU)
[2] = system: zebrafish; assay: Zebrafish electro-cardio indexes under deltamethrin exposure, with Pearson correlation to environmental stress E; details: as concentration increased (0.52, 2, 2.6 μg/L), 0-48 h
Protocol: Fish electro-cardio signals respectively before and after the fish is exposed to a solution containing a specific organic compound are gathered by the real-time and miniaturized fish electro-cardio acquisition system, and various electro-cardio indexes are respectively extracted.
The correlation between environmental stress and respective extracted electro-cardio indexes is analyzed according to Pearson Correlation Analysis to select an electro-cardio index suitable for the assessment of water quality with respect to this specific organic compound.
A linear regression model between the environmental stress and respective electro-cardio indexes is analyzed and assessed according to Akaike Information Criterion and the sum of square error to finally obtain an electro-cardio index suitable for the assessment of water quality with respect to the specific organic compound.
In the present method, the real-time electro-cardio signals were acquired from multiple fishes respectively exposed to different concentrations of the specific organic compound. Firstly, the zebrafish was exposed to an organic solvent deltamethrin solution. […]
The acquired electro-cardiographs were subjected to filtering and interference removal to become clearer; the analyzed data was processed, and then was analyzed by Matlab software and SPSS software to estimate the electro-cardio changes based on data differences. […]

[3] = system: zebrafish; assay: 48 h medial lethal concentration of deltamethrin for zebrafish; type: in vivo; details: recorded as 1 toxic unit (1 TU)
From the text: Three zebrafishes were used in each exposed group.

Row | Compound | 48 h semi-lethal concentration [1] [mg/L] | PR interval, QRS interval, ST interval and QT interval [2] | amplitudes of P-wave, Q-wave, R-wave, S-wave and T-wave [2] | 48 h medial lethal concentration [3] [µg/L]
1 | [Cl][Cd][Cl] [cadmium chloride] | 23.6 | – | – | –
2 | CC1(C)[C@H](C(=O)O[C@H](C#N)c2cccc(Oc3ccccc3)c2)[C@@H]1C=C(Br)Br [deltamethrin] | – | increased | decreased | 5.2
3 | [Mn+2] [manganese] | 2.75 | – | – | –
4 | [Cl][Hg][Cl] [mercury chloride] | 0.13 | – | – | –
